According to article PMC6556873, “Rapid Covalent-Probe Discovery by Electrophile-Fragment Screening” (Journal of the American Chemical Society, 2019):
Where two headings read alike, the source gives them in different places.

Tests used:
[1] = biological target: T1, BSA (Bos taurus, UniProt P02769); set-up: Intact protein LC/MS covalent labelling, fragments in pools of five, 200 uM each, 4 °C; conditions: 24 h, 4 °C, pool of five; 200 µM; covalent
T1 construct: gene ALB

[2] = biological target: T2, NNMT (hNNMT) (Homo sapiens, UniProt P40261); set-up: Intact protein LC/MS covalent labelling, fragments in pools of five, 200 uM each, 4 °C; conditions: 24 h, 4 °C, pool of five; 200 µM; covalent
T2 construct: wild type, N-terminal His6 tag kept (no cleavage described), E. coli, construct 31248 Da
T2 sequence (P40261 1-264): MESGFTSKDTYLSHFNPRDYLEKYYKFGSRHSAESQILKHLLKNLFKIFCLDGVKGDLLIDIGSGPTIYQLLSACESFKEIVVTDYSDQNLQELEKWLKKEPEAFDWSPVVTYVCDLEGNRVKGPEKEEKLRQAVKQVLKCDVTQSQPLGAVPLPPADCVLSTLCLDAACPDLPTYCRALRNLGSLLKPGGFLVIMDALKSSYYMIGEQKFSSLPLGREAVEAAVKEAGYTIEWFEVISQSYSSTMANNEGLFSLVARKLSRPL

[3] = biological target: T3, NUDT7 (Homo sapiens, UniProt P0C024); set-up: Intact protein LC/MS covalent labelling, fragments in pools of five, 200 uM each, 4 °C; conditions: 24 h, 4 °C, pool of five; 200 µM; covalent
T3 construct: residues 14-235, E. coli, pNIC28-Bsa4, N-terminal His6 tag removed by TEV, construct 26672 Da
T3 sequence (P0C024 14-235): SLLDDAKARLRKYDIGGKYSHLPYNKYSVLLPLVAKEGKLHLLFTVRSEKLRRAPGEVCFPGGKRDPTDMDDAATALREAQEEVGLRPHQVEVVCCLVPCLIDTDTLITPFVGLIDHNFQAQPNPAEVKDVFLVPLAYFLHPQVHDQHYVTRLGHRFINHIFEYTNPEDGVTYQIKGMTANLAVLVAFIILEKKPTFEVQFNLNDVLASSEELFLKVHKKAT

[4] = biological target: T4, OTUB2 (OTUB2A) (Homo sapiens, UniProt Q96DC9); set-up: Intact protein LC/MS covalent labelling, fragments in pools of five, 200 uM each, 4 °C; conditions: 24 h, 4 °C, pool of five; 200 µM; covalent
T4 construct: full length residues 1-234, E. coli BL21(DE3)-R3, His tag removed by TEV, construct 27312 Da
T4 sequence (Q96DC9 1-234): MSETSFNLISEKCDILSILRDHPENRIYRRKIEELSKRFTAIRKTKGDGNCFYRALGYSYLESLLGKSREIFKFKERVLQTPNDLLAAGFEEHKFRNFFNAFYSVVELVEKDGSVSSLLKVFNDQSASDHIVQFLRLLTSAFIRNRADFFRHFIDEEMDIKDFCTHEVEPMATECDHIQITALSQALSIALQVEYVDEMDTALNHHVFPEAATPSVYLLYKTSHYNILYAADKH

[5] = biological target: T5, PCAF (Homo sapiens, UniProt Q92831); set-up: Intact protein LC/MS covalent labelling, fragments in pools of five, 200 uM each, 4 °C; conditions: 24 h, 4 °C, pool of five; 200 µM; covalent
T5 construct: gene KAT2B
T5 sequence (Q92831 whole entry, the tested form may be a part): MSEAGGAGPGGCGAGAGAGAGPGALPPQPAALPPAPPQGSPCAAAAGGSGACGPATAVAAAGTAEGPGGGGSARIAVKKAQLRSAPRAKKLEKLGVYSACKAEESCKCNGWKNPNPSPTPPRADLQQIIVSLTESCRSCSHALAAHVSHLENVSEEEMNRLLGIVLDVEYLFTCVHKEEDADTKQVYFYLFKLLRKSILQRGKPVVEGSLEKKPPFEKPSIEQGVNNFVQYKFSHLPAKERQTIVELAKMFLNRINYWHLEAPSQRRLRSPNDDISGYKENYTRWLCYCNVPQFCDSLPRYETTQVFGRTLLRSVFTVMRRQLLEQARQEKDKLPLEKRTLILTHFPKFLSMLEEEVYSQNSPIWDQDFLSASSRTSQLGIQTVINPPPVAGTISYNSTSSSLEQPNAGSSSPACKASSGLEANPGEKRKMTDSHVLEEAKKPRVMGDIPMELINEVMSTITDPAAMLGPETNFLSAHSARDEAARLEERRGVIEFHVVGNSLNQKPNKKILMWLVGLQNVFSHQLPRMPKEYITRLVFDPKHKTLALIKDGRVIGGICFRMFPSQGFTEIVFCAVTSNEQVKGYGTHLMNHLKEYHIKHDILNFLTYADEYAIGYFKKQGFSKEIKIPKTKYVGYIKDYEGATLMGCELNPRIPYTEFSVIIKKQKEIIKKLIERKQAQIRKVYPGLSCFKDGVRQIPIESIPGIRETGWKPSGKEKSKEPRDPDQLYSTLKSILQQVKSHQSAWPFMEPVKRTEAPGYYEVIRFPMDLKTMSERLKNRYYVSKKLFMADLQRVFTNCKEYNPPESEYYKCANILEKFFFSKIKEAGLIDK

[6] = in vitro; set-up: species or system CCD841, HEK293; conditions: human, hb2 cells, read-out: HB-2 Cells Viability (%)
[7] = in vitro; set-up: species or system HB2, HEK293; conditions: human, ccd841 cells
[8] = in vitro; set-up: species or system HB2, CCD841; conditions: human, hek293 cells

T1 sequence (P02769 whole entry, the tested form may be a part): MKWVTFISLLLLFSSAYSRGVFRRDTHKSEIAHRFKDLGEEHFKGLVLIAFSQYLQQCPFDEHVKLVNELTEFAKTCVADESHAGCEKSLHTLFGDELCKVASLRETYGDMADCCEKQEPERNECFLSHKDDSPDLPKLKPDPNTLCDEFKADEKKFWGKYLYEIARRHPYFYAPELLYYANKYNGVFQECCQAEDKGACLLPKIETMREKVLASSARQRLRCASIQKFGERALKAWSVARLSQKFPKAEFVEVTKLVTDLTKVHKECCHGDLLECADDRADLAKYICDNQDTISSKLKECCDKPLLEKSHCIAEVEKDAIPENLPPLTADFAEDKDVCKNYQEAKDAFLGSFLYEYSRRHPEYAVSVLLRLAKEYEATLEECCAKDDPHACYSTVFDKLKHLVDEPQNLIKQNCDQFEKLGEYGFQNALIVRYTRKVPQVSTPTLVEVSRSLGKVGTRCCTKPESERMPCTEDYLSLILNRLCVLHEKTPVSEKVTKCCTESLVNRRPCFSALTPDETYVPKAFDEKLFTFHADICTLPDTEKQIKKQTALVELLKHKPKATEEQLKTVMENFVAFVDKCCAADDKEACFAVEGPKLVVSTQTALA

SMILES | BSA [1] | NNMT [2] | NUDT7 [3] | OTUB2 [4] | PCAF [5] | viability at 48 h, 10 µM [6] | viability at 48 h, 10 µM [7] | viability at 48 h, 10 µM [8]
C=CC(=O)N1CCCC(c2ncc(C(F)(F)F)[nH]2)C1 (stereo not shown) [PCM-0102527] | 0.09 | 0 | 0 | 0 | 0 | 98.6% | 129% | 109%
O=C(CCl)Nc1ccc2[nH]c(=O)[nH]c2c1 [PCM-0102866] | 0 | 0 | 0 | 0.3 | 0 | 77.3% | 73.7% | 27.5%
CC(=O)N1CCC(NC(=O)CCl)CC1 [PCM-0102932] | 0 | 0 | 0 | 0.07 | 0 | 95.1% | 85.9% | 88%
C=CC(=O)N1CCC(C(=O)c2cccs2)CC1 [PCM-0102989] | 0 | 0 | 0 | 0 | 0 | 97.7% | 97.9% | 102%
CC(C)(C)c1nnc(NC(=O)CCl)s1 [PCM-0102736] | 0 | 0.13 | 0 | 0 | 0 | 80.1% | 67.5% | 81.5%
C=CC(=O)NC1CCC(c2nc(C)no2)CC1 (stereo not shown) [PCM-0102521] | 0 | 0 | 0 | 0.35 | 0 | 101% | 116% | 83%
C=CC(=O)NC1(c2nnc3n2CCCC3)CCC1 [PCM-0102639] | 0 | 0 | 0 | 0 | 0 | 101% | 131% | 123%
Cc1ccc(Cn2ccsc2=NC(=O)CCl)cc1 [PCM-0102708] | 0 | 0 | 0.09 | 0 | 0 | 36% | 3% | 7.9%
O=C(CCl)N(c1ccccc1)C1CCS(=O)(=O)C1 (stereo not shown) [PCM-0102755] | 0 | 0 | 0.17 | 0 | 0 | 28.5% | 20.4% | 16.7%
COc1ccc(Cl)cc1NC(=O)CCl [PCM-0102370] | 0 | 0 | 0.23 | 0.18 | 0 | 3.7% | 34.6% | 3.3%
Cl.O=C(CCl)Nc1cccnc1 [PCM-0102653] | 0 | 0 | 0 | 0 | 0 | 84.6% | 85.6% | 93.3%
O=C(CCl)N1CCc2ccc([N+](=O)[O-])cc21 [PCM-0102777] | 0 | 0.61 | 0 | 0 | 0 | 1.7% | 2.6% | 17.9%
C=CC(=O)N1CCCN(C(=O)c2cc(Cl)cn2C)CC1 [PCM-0103003] | 0 | 0 | 0 | 0 | 0 | 105% | 101% | 96.7%
O=C(CCl)N1CCN(C(=O)c2ccco2)CC1 [PCM-0102248] | 0.06 | 0.1 | 0.09 | 0 | 0 | 78.1% | 73.2% | 35.6%
N#CCc1ccc(NC(=O)CCl)cc1 [PCM-0102148] | 0 | 0.27 | 0.1 | 0.43 | 0 | 11.8% | 32.2% | 2.1%
CS(=O)(=O)c1ccc(F)c(NC(=O)CCl)c1 [PCM-0103018] | 0 | 0 | 0 | 0.16 | 0 | 57.6% | 53.6% | 24.3%
O=C(CCl)Nc1ccccc1Cl [PCM-0102152] | 0 | 0 | 0 | 0.2 | 0 | 75.4% | 78.5% | 76.1%
Cc1ccc(NC(=O)CCl)cc1Br [PCM-0102955] | 0 | 0.78 | 0.27 | 0.14 | 0 | 41.5% | 71.2% | 38.3%
C=CC(=O)N1CCC(C(=O)O)(c2ccccc2)CC1 [PCM-0102459] | 0 | 0 | 0 | 0 | 0 | 103% | 98.8% | 110%
CC(C)(C)NC(=O)CN1CCN(C(=O)CCl)CC1.Cl [PCM-0102302] | 0 | 0.24 | 0.08 | 0.13 | 0 | 97% | 98.9% | 84.4%
